What was measured:
[1] = biological target: T1, PERK (Homo sapiens, UniProt Q9NZJ5); experiment: cell-free FRET-based biochemical assay, PERK; conditions: role: inhibitor; ratio of IC50 values
T1 construct: purchased Carna
Experimental: The potency of HC-5404 against four ISR kinases was evaluated in cell-free FRET-based biochemical assays, following manufacturer's instructions (Carna).
Cell-free biochemical assays were used to evaluate the selectivity of HC-5404 for PERK, relative to the ISR kinases GCN2, HRI, and PKR. In these assays, recombinant target kinases were incubated with […] and an eIF2α-based fluorogenic substrate, and kinase activity was evaluated in presence of HC-5404 across a concentration series.

[2] = test system: Capan-2 pancreatic tumor xenografts; experiment: CAPAN-2 pancreatic xenograft tumor growth; assay type: in vivo, mouse; conditions: for TGI: 48 days
[3] = test system: tumor vasculature of 786-O xenografts; experiment: IHC of tumor vasculature in 786-O xenografts; assay type: in vivo, mouse
Experimental: (§1) Formalin-fixed paraffin-embedded samples were sectioned at 5 μm thickness and mounted on Superfrost Plus microscope slides (Fisher Scientific). All immunohistochemical (IHC) staining was performed on Bond Rx auto-stainer (Leica Biosystems) using the conventional TSA-amplified detection system. Primary antibodies used were as follows: α-CD31 (Abcam #ab182981), α-smooth muscle actin (SMA; Abcam #ab124964), α-Meca32 (Novus Biologicals #NB100-77668). TSA-conjugated Alexa488 and Alexa647 fluorophores from Invitrogen (#B40953 and #B40958) were used at 1:500 dilution. Slides were counterstained with DAPI and cover slipped using Mowiol antifade mounting media (Sigma #D2522).
(§2) Slides were imaged with Aperio Versa 200 (Leica Biosystems) whole-slide scanner using 10×/0.32NA objective, and the data were analyzed using custom-written macros in ImageJ/FIJI (NIH). Briefly, 150 μm of outer edges of the tumor sections were eliminated from the analysis. Gaussian-blurred DAPI channel was used to measure the area of the tissue. Scans of […] were processed with median filter to remove noise, then positive areas were measured with appropriate threshold levels. % positive area for each marker was calculated. CD31-SMA double positive areas were measured via image calculation of the binary images. One-way ANOVA and pair-wise comparisons were performed on the data using Prism GraphPad.
PERK is an adaptive stress response that links hypoxia and nutrient deprivation with proangiogenic signaling. The effect of HC-5404 on tumor vasculature when administered in combination with antiangiogenic VEGFR-TKIs was investigated.
As immature blood vessels mature, they develop a mural layer of cells that express smooth muscle actin (SMA), which encircles and stabilizes the maturing vessel. Co-staining for both CD31 and SMA was conducted to determine whether treatments were affecting mature or immature tumor blood vessels.
This example investigated the inhibition the effect of cabozantinib on the formation of new tumor vasculature and on pericytes following procedures analogous to those described above.

[4] = test system: tumor vasculature and pericyte cells of 786-O xenografts progressed on axitinib; experiment: IHC of tumor vasculature and pericytes in 786-O xenografts that progressed on axitinib; assay type: in vivo, mouse; conditions: 7 days after rerandomization (FIG. 92)
Experimental: as §1, §2
After 14 days of treatments, 77 mice bearing the largest tumors were rerandomized into four PD arms (n=8), four efficacy arms (n=10), and 5 tumors sampled on day of rerandomization as a baseline. The remaining animals were removed from study.

[5] = mouse body weight / tolerability; assay type: in vivo; conditions: 786-O, HC-5404 3, 10, 30 mg/kg BID and/or cabozantinib 30 mg/kg QD (FIG. 53)
Experimental: Body weight and tumor volume were measured twice weekly. Tumor volume was calculated using the formula [tumor volume (mm^3)=π/6×length×width^2] and plotted as means+SEM. The percentage of tumor growth inhibition was calculated at the end of the study using the formula: […], if ΔT>0, ΔT, mean tumor volume of the drug-treated group on the observation day of the study—mean tumor volume of the drug-treated group on initial day of dosing; ΔC, mean tumor volume of the control group on the observation day of the study—mean tumor volume of the control group on initial day of dosing. Regression was calculated using the formula=100×ΔT/Tinitial, if ΔT<0. Animals with >50% regressions were partial responders. Animals with tumor volume of 0 (no measurable tumor) were considered as complete responders, and animals with <50% tumor regression and 30% growth over the baseline were considered as stable disease. Animals with tumors>30% increase over the baseline were considered progressive disease. The % change in body weight was calculated by the formula (body weight on observation day−body weight on initial day)/body weight on initial day×100%.

[6] = test system: MFE280 endometrial cancer model; experiment: MFE280 endometrial xenograft tumor growth; assay type: in vivo, mouse; conditions: single agent: HC-5404 30 mg/kg PO BID or lenvatinib 10 mg/kg QD (FIG. 77)
Experimental: Xenograft RCC models were generated as follows: Female NOD.SCID mice (6-8 weeks of age) were injected with A498 RCC cells (5×10^6 cells/mouse), female Balb/c Nude mice (6-8 weeks old) were implanted with 786-O RCC cells (5×10^6 cells/mouse) or Caki-1 RCC cells (6×10^6 cells/mouse), female Athymic Nude-Foxn1nu mice (7-8 weeks of age) were implanted with MFE280 endometrial cells (10×10^6 cells/mouse). Cells were implanted into the flank of animals.
Once tumor tumors reached volume of typically 150-250 mm^3, animals were randomized by tumor volume into the treatment groups of 8 or 10 animals per group. In the single animal trial with RCC PDX models, only one animal per group was enrolled.
Body weight and tumor volume were measured twice weekly. Tumor volume was calculated using the formula [tumor volume (mm^3)=π/6×length×width^2] and plotted as means+SEM. The percentage of tumor growth inhibition was calculated at the end of the study using the formula: 100−[1−(ΔT/ΔC)], if ΔT>0, ΔT, mean tumor volume of the drug-treated group on the observation day of the study—mean tumor volume of the drug-treated group on initial day of dosing; ΔC, mean tumor volume of the control group on the observation day of the study—mean tumor volume of the control group on initial day of dosing. Regression was calculated using the formula=100×ΔT/Tinitial, if ΔT<0. […]

[7] = test system: ASNS and PSAT1 in MFE280 tumors; experiment: ASNS and PSAT1 in MFE280 tumors; assay type: in vivo, mouse; conditions: 7 days, HC-5404 30 mpk BID
[8] = test system: RXF-2304; experiment: RCC PDX single animal trial, RXF-2304; assay type: in vivo, mouse; conditions: HC-5404 30 mg/kg PO BID, n=1
Excerpt: This example investigated the effect of HC-5404 in combination with VEGFR-TKIs in inhibiting tumor growth using 12 RCC PDX tumor models, following procedures analogous to those described above.
Single animal per group (n=1) trial of animals harboring diverse RCC PDX models were used in this study.

T1 sequence (Q9NZJ5 30-1116): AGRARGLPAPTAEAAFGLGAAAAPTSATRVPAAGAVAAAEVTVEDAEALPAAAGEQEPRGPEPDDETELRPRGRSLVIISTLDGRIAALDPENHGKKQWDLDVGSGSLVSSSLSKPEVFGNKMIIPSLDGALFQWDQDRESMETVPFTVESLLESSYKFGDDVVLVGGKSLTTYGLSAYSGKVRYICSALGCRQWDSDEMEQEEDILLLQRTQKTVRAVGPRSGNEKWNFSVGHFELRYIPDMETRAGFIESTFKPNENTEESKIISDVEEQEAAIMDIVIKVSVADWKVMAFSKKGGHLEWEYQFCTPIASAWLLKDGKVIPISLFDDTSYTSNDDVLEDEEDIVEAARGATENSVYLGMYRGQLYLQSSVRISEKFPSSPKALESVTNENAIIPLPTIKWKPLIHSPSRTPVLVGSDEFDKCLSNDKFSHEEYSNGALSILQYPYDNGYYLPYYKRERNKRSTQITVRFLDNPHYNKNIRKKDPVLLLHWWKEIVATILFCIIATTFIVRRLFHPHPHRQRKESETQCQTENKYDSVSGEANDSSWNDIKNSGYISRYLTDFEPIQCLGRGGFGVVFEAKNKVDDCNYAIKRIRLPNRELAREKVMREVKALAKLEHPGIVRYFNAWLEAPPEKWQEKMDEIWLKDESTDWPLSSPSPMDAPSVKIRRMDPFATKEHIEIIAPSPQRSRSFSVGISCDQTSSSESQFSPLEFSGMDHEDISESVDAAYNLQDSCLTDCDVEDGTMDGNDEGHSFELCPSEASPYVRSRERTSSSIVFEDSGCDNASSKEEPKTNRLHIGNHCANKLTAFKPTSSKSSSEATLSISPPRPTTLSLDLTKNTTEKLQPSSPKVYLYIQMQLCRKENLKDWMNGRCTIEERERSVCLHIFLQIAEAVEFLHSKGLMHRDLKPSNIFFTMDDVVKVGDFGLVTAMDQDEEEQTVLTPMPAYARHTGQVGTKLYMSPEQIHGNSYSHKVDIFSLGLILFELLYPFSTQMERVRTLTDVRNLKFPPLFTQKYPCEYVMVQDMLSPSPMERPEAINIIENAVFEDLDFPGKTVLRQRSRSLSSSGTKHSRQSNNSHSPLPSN

Cc1cc(NC(=O)[C@H](O)c2cc(F)cc(F)c2)ccc1-c1cnc(N)c(C(=O)NC(C)C)c1 [HC-5404, (R)-2-amino-5-(4-(2-(3,5-difluorophenyl)-2-hydroxyacetamido)-2-methylphenyl)-N-isopropylnicotinamide]
biochemical selectivity for PERK over GCN2, HRI and PKR [1]: > 2000 fold
TGI ([2]; 30 mg/kg PO BID): 50%
TGI ([2]; 100 mg/kg PO BID): 43%
difference between dose levels in TGI ([2]; 30 vs 100 mg/kg BID): No difference between the dose levels
expression of any vascular markers ([3]; HC-5404 single agent (FIG. 39)): did not affect the expression of any vascular markers
proportion of Meca32 expressing vascular endothelial cells ([3]; axitinib study (FIG. 38, 39)): did not affect this vascular endothelium marker
proportion of smooth muscle actin (SMA) [4]: decreased
mouse body weight [5]: did not affect mouse body weight
TGI % [6]: ~ 37%
ASNS ([7]; lenvatinib 10 mpk QD (FIG. 79)): induces ASNS
PSAT1 ([7]; lenvatinib 10 mpk QD (FIG. 80)): induces
antitumor efficacy as monotherapy [8]: exhibited antitumor efficacy

Source: patent publication US20260373132A1, “PERK INHIBITORHC-5404 IN COMBINATION WITH ANTI-PD-1 ANTIBODY AND/OR AN ANTIANGIOGENETIC AGENT FOR USE IN THE TREATMENT OF CANCER” (HIBERCELL, INC., priority 2022, published 2026)
